Experiment: In vitro drug release from PLGA-PEG-PLGA hydrogel in microfluidic devices at physiological flow rate
Assay type: physicochemical
Details: 15 μg HA loaded; for release rate of hyaluronic acid from hydrogel: 35° C.; for amount of HA released: in 10 days
Description: The final volume of the hydrogel solution with the compound of interest was constrained to 100 μL because of the anatomical space in the lens capsule. Physiological flow rate (2.4 μl/min) was achieved using microfluidic devices. The devices resemble the anatomical dimensions of both the anterior and posterior chamber of the human eye, as well as the physiological dynamics of the aqueous humor flow. All of the release studies were conducted at 35° C. • a. Dexamethasone (Hydrophobic): 100 μL of PLGA-PEG-PLGA hydrogel solution at 25 (w/v) % was mixed with 100 μg of dexamethasone. The collected samples were analyzed via HPLC. • b. […] The collected samples were analyzed via fluoresce spectroscopy at an excitation, filter, and emission wavelengths (nm) of 483, 515 524, respectively • c. Nucleic acid conjugates (Hydrophilic): 62 μL of nucleic acid conjugates in PBS solution (31 μg) were mixed with 38 μL of hydrogel solution at a concentration of 25 (w/v) %. Because the nucleic acid conjugates were already dissolved in PBS, the hydrogel solution was diluted down to 14 (w/v) %. The collected samples were analyzed via fluorescence spectroscopy at an excitation, filter, and emission wavelengths (nm) of 642, 665, and 670, respectively. • d. Hyaluronic acid (Hydrophilic): 30 μL of hyaluronic acid (HA, 800 KDa) stock solution at a concentration of 0.5 mg/mL in PBS (15 ug of HA) was mixed with 56 μL of hydrogel solution at a concentration of 25 (w/v) %. In addition, 14 μL of PBS were added to diluted the hydrogel solution down to 14 (w/v) %. Samples containing PLL were prepared by adding to the already mentioned composition 10 mg of PLL (10 (w/v) % PLL). The collected samples were analyzed via fluorescence spectroscopy at an excitation, filter, and emission wavelengths (nm) of 483, 495, 518, respectively.

[1] = systems modified with 10 (w/v) % PLL

Substance: Hyaluronic acid
- release rate of hyaluronic acid from hydrogel (control systems, no PLL): 0.087 ± 0.044 µg/h
- amount of HA released (control systems, no PLL): 13 µg
- release rate of hyaluronic acid from hydrogel [1]: 0.055±0.026
- amount of HA released [1]: 11 µg
